Laboratory results taken from patent US20090105072A1, “2-(Pyridin-2-Yl)-Pyrimidines for Use as Fungicides” (priority 2007, published 2009).

Test system: Puccinia recondita
Experiment: Curative activity against brown rust of wheat caused by Puccinia recondita
Assay type: in vivo
Conditions: 250 ppm, wheat seedlings cultivar Kanzler, 7 days after treatment, untreated plants 90% infected
Description: The active compounds were prepared separately or together as a stock solution with 25 mg of active compound which was made up to 10 ml using a mixture of acetone and/or dimethyl sulfoxide (DMSO) and the emulsifier Wettoll® EM 31 (wetting agent having emulsifying and dispersing action based on the ethoxylated alkylphenols) in a volume ratio of solvent/emulsifier of 99 to 1. The mixture was then made up with water to 100 ml. This stock solution was diluted with the solvent/emulsifier/water mixture described to the concentration of active compound stated below.
Leaves of potted wheat seedlings of the cultivar “Kanzler” were inoculated with a spore suspension of brown rust of wheat (Puccinia recondite). The pots were then placed in a chamber with high atmospheric humidity (90 to 95%) and 20 to 22° C. for 24 hours. During this time, the spores germinated and the germ tubes penetrated into the leaf tissue. The next day, the infected plants were sprayed to runoff point with the above-described active compound solution having the active compound concentration stated below. After the spray coating had dried on, the test plants were cultivated in a greenhouse at temperatures between 20 and 22° C. and 65 to 70% relative atmospheric humidity for 7 days. The extent of the rust fungus development on the leaves was then determined.

SMILES | infection (extent of the rust fungus development on the leaves)
COc1ccc(-c2nc(-c3ncc4c(n3)CCCCC4)ccc2C)cn1 [Example 44] | no infection
COc1ccc(-c2nc(-c3ncc4c(n3)CCCCC4)ccc2C)cn1 [drawing 28] | 90%
